Patent US11807907B2, “Method for diagnosing and treating subjects having single nucleotide polymorphisms in chromosome 2, 2:107,510,000-107,540,000 locus” (NEURIM PHARMACEUTICALS (1991) LTD., priority 2021, dated 2023)
Marks after values point to notes of the source that are not given here.

Key:
[1] = system: patients with early symptomatic Alzheimer's disease; assay: Randomized, placebo controlled study of piromelatine in patients with early symptomatic Alzheimer's disease (cNTB, ADAS-Cog14, NPI, PSQI), analysed by 2:107,510,000-107,540,000 locus polymorphism carrier status; assay type: in vivo, human; parameters: key: ns = non-significant effect; deter = deterioration; settings: carriers (N = 12); 20 mg daily for 26 weeks
Procedure: (§1) DNA extraction and SNP genotyping were performed as follows: For 107 patients, whole blood was collected at the time of enrollment, and genomic DNA was extracted from peripheral lymphocytes using a commercial kit. Variant genotyping of a combined Whole Genome and Whole Exome sequencing, was performed. The detection of variants associated with the response of the treatment was performed through a genome wide association study (GWAS) analysis (which is a known case-control paradigm). […] The general case-control allelic test was performed through a Cochran-Armitage trend test. […] The stratification was assessed by a complete-linkage hierarchical clustering using the pairwise population concordance as a constraint. […]
(§2) To further explore the relationship between these paradoxical responses and other variables in the study, changes in ADAS-Cog14 and relationships with the other variables for the intermediate dose (20 mg) of piromelatine were analyzed (Table 2). […]
(§3) To further explore the relationship between these paradoxical responses and other variables in the study, changes in cNTB, ADAS-Cog14 and PSQI for the low dose (5 mg) of piromelatine were analyzed (Table 3). […]

[2] = system: patients with early symptomatic Alzheimer's disease; assay: as above; assay type: in vivo, human; parameters: key: ns = non-significant effect; deter = deterioration compared to placebo; settings: locus polymorphism carriers; 5, 20 and 50 mg daily for 26 weeks; compared to placebo
Procedure: as §1, §2, §3

5HT1a [3] = biological target: T1, 5HT1a (Homo sapiens, UniProt P08908); assay: 5-HT receptor radioligand binding assay, 5-HT-1a; parameters: expressed in transfected cells; host or cells: HEK-293; settings: HEK-293 cells, 3H-OH-DPAT, read-out: IC50 (concentration causing 50% inhibition of binding)
T1 sequence (P08908 1-422): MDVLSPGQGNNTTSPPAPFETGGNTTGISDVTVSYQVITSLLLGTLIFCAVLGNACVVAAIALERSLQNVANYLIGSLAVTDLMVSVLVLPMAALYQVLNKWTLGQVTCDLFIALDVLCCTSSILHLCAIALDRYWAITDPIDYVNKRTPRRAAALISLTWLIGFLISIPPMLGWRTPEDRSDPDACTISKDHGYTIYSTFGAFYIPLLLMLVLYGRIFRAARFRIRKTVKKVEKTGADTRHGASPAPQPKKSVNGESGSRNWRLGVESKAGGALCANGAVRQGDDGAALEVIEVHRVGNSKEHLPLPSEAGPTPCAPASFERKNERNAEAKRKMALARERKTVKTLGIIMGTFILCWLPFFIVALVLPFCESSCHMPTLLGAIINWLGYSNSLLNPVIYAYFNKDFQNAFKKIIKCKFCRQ
Procedure: (§4) For receptor binding assays, stably expressing 5-HT1a, 1b, 1d and 2c receptors cells (HEK-293, rat cerebral cortex, CHO and HEK-293, respectively) were incubated with 0.3 or 1 nM of their respective radioligand (^3H—OH-DPAT, ^125I CYP, ^3H serotonin and ^3H-mesulergine) alone or in the presence of 1 nM to 10 μM of piromelatine. The bound radioligand was assessed. Non-specific binding was evaluated under the reaction contained with 8-OH-PTA, serotonin and RS-10221 (8-[5-(2,4-Dimethoxy-5-(4-trifluoromethylphenylsulphonamido)phenyl-5-oxopentyl]-1,3,8-triazaspiro[4.5]decane-2,4-dione hydrochloride).

5-HT-1b receptor = biological target: T2, 5-HT-1b receptor (Rattus norvegicus, UniProt P28564); assay: 5-HT receptor radioligand binding assay, 5-HT-1b; settings: rat cerebral cortex, 125I CYP, read-out: IC50 (concentration causing 50% inhibition of binding)
T2 construct: stably expressing 5-HT1a, 1b, 1d and 2c receptors cells (HEK-293, rat cerebral cortex, CHO and HEK-293, respectively); from tissue; host or cells: rat cerebral cortex
T2 sequence (P28564 whole entry): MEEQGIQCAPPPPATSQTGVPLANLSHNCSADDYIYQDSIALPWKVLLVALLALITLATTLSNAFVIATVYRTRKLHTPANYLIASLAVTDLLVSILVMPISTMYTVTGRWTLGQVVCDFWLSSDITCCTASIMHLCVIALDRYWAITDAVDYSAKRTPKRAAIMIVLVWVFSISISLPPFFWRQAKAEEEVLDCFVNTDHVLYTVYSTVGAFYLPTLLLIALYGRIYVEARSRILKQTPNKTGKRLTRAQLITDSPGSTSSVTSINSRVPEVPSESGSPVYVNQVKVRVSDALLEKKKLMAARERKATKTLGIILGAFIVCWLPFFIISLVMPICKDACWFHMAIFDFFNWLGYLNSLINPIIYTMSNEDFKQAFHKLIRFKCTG
Procedure: as §4

5-HT-1d receptor = biological target: T3, 5-HT-1d receptor (Rattus norvegicus, UniProt P28565); assay: 5-HT receptor radioligand binding assay, 5-HT-1d; settings: CHO cells, 3H serotonin, read-out: IC50 (concentration causing 50% inhibition of binding)
T3 construct: expressed in transfected cells; host or cells: CHO
T3 sequence (P28565 whole entry): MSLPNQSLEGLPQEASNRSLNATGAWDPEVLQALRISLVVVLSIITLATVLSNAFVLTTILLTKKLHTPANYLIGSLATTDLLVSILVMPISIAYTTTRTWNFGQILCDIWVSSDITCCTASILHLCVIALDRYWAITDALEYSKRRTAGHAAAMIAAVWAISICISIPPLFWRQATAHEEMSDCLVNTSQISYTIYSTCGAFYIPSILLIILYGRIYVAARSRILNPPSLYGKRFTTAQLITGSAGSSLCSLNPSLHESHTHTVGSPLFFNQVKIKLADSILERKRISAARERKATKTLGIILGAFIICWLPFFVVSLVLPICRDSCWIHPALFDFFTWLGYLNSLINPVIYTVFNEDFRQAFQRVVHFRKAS
Procedure: as §4

5-HT-2a receptor = 5-HT-2a receptor (Homo sapiens, UniProt P28223); assay: 5-HT receptor binding, 5-HT-2a; settings: read-out: IC50 (concentration causing 50% inhibition of binding)
Chain of 5-HT-2a receptor (P28223 whole entry): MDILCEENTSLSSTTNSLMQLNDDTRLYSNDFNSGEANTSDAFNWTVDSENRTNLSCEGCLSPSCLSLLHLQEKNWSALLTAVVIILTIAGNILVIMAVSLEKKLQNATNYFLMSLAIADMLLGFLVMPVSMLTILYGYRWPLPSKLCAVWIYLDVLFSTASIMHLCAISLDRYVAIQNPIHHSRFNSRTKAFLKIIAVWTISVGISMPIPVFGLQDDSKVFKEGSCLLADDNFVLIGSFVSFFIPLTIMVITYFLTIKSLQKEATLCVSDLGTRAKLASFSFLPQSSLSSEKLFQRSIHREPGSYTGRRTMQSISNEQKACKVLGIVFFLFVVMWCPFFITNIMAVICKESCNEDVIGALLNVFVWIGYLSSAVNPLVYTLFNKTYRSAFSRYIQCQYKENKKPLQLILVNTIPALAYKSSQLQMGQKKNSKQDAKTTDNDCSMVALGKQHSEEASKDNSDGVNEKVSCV

5-HT-2c receptor = biological target: T4, 5-HT-2c receptor (Homo sapiens, UniProt P28335); assay: 5-HT receptor radioligand binding assay, 5-HT-2c; settings: HEK-293 cells, 3H-mesulergine, read-out: IC50 (concentration causing 50% inhibition of binding)
T4 construct: expressed in transfected cells; host or cells: HEK-293
T4 sequence (P28335 33-458): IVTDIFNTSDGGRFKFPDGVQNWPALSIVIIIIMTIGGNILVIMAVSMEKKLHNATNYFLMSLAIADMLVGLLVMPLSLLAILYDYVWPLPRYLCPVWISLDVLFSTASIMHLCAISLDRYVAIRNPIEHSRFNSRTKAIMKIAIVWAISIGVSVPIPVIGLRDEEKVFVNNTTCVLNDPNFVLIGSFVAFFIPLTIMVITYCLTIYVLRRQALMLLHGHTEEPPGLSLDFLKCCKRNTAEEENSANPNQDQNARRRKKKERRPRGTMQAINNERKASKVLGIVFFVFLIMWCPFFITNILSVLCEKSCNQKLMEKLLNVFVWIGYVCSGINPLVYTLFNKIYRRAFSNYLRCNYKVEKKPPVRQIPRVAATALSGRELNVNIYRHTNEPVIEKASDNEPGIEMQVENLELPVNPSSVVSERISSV
Procedure: as §4

[4] = system: 60 different ion channels and receptors of different neurotransmitters and hormones; assay: Full profile of binding to an additional 60 ion channels and receptors; settings: 10 μM of piromelatine; none of the 60 assays
Procedure: A full profile of binding parameters to an additional 60 different ion channels and receptors of different neurotransmitters and hormones was performed (data not shown because none of the 60 receptor assays yielded a significant (>50%) inhibition by 10 μM of piromelatine).

5-HT-7 receptor = 5-HT-7 receptor (Homo sapiens, UniProt P34969); assay: 5-HT receptor binding, 5-HT-7; settings: read-out: IC50 (concentration causing 50% inhibition of binding)
Chain of 5-HT-7 receptor (P34969 whole entry): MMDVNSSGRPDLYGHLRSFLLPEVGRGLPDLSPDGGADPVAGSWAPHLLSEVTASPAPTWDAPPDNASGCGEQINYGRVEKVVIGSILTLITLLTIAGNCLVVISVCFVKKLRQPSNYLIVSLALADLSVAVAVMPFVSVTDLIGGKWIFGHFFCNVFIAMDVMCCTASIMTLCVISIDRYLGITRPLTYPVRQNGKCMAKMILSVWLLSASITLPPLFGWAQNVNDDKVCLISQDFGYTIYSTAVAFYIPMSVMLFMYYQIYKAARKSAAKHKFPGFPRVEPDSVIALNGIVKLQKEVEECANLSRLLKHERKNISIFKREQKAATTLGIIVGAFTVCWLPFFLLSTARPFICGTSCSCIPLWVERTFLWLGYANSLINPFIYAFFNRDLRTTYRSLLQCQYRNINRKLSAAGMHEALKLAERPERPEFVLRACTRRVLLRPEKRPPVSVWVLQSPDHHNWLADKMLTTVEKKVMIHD

[5] = system: patients with early symptomatic Alzheimer's disease; assay: Randomized, placebo controlled study of piromelatine in patients with early symptomatic Alzheimer's disease (cNTB, ADAS-Cog14, NPI, PSQI), analysed by 2:107,510,000-107,540,000 locus polymorphism carrier status; assay type: in vivo, human; parameters: key to Improvement, cNTB / Improvement, PSQI: ns = non-significant effect; deter = deterioration compared to placebo
Procedure: DNA extraction and SNP genotyping were performed as follows: For 107 patients, whole blood was collected at the time of enrollment, and genomic DNA was extracted from peripheral lymphocytes using a commercial kit. Variant genotyping of a combined Whole Genome and Whole Exome sequencing, was performed. The detection of variants associated with the response of the treatment was performed through a genome wide association study (GWAS) analysis (which is a known case-control paradigm). […] The general case-control allelic test was performed through a Cochran-Armitage trend test. […] The stratification was assessed by a complete-linkage hierarchical clustering using the pairwise population concordance as a constraint. The SNP calling was done on the aligned BAM files using DRAGEN: support.illumina.com/help/DRAGEN_Germline_OLH_1000000083701/Content/Source/Informatics/Apps/DRAGENGermlineSmallVarCaller_appDRAG.htm and filter SNPs using VQSR: gatk.broadinstitute.org/hc/en-us/articles/360035531612-Variant-Quality-Score-Recalibration-VQSR.
To further explore the relationship between these paradoxical responses and other variables in the study, changes in ADAS-Cog14 and relationships with the other variables for the intermediate dose (20 mg) of piromelatine were analyzed (Table 2). […] Moreover, in this trial, 39% of patients treated with the 20 mg piromelatine that were not carriers of the 2:107,510,000-107,540,000 locus polymorphism improved (decreased)>4 points in the ADAS-Cog14 and thus were considered “responders (beneficial response)” vs. only 8% of the patients treated with the 20 mg piromelatine that were carriers of the 2:107,510,000-107,540,000 locus polymorphism (Table 2).
To further explore the relationship between these paradoxical responses and other variables in the study, changes in cNTB, ADAS-Cog14 and PSQI for the low dose (5 mg) of piromelatine were analyzed (Table 3). […] However, only carriers of a 2:107,510,000-107,540,000 locus polymorphism improved on the computerized Neuropsychological Test Battery (cNTB) upon treatment with the 5 mg piromelatine dose and the main performance domains being the episodic memory domain composite score and attention domain composite score.

5-HT1b = 5-HT1b (Homo sapiens, UniProt P28222); assay: Functional assay (cellular dielectric spectroscopy, impedance), 5-HT1b; assay type: cell-based
Chain of 5-HT1b (P28222 whole entry, species assumed): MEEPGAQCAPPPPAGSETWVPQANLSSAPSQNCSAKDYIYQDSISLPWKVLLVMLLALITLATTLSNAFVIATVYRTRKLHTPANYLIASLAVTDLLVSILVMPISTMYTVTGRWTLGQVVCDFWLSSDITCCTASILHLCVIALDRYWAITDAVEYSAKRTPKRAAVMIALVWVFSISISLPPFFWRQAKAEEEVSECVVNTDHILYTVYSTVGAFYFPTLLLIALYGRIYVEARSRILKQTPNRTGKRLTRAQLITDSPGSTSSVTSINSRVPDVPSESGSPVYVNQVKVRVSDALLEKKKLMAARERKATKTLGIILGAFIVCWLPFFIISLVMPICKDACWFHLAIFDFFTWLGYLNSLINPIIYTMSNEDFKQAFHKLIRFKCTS
Excerpt: (§5) For the functional assay, Homogeneous Time Resolved Fluorescence (HTRF) was used to measure cAMP or IP1 as products of the functional agonist or antagonist binding of 5-HT1a, 2a,2b, 2c, 4e, 6, 7 to their respective ligand (8-OG-DPAT or serotonin). Cellular dielectric spectroscopy was used to measure impedance as the product of the functional agonist or antagonist binding of 5HT1b and determine their respective ligand (serotonin).

5-HT1d = 5-HT1d (Homo sapiens, UniProt P28221); assay: Functional assay, 5-HT1d; assay type: cell-based
Chain of 5-HT1d (P28221 whole entry, species assumed): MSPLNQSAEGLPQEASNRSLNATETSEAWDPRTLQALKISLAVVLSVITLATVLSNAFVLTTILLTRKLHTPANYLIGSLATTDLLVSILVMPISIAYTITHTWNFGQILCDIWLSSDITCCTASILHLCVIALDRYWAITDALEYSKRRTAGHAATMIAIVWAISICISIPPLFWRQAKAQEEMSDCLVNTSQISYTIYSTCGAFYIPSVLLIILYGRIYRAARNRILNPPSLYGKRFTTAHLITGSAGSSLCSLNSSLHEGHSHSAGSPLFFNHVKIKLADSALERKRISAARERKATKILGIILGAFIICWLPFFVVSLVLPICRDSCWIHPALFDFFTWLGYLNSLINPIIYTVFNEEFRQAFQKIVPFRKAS
Excerpt: [Worded in the source for another target; this target is reported under the same test.] as §5

5-HT-4 receptor = 5-HT-4 receptor (Homo sapiens, UniProt Q13639); assay: 5-HT receptor binding, 5-HT-4; settings: read-out: IC50 (concentration causing 50% inhibition of binding)
Chain of 5-HT-4 receptor (Q13639 whole entry): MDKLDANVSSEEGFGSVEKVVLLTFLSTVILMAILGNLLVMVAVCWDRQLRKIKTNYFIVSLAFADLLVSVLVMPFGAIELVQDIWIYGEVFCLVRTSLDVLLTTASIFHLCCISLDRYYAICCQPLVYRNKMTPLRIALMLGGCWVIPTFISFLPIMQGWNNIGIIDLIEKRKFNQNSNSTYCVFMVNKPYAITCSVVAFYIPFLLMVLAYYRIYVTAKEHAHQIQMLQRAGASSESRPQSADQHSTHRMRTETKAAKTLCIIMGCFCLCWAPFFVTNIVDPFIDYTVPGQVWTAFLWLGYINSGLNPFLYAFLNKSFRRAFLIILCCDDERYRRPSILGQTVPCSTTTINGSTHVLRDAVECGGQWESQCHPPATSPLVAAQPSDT

5HT1a [6] = biological target: T1, 5HT1a; assay: Functional assay (HTRF, cAMP or IP1), 5HT1a; assay type: cell-based
Excerpt: as §5

5-HT-6 receptor = 5-HT-6 receptor (Homo sapiens, UniProt P50406); assay: 5-HT receptor binding, 5-HT-6; settings: read-out: IC50 (concentration causing 50% inhibition of binding)
Chain of 5-HT-6 receptor (P50406 whole entry): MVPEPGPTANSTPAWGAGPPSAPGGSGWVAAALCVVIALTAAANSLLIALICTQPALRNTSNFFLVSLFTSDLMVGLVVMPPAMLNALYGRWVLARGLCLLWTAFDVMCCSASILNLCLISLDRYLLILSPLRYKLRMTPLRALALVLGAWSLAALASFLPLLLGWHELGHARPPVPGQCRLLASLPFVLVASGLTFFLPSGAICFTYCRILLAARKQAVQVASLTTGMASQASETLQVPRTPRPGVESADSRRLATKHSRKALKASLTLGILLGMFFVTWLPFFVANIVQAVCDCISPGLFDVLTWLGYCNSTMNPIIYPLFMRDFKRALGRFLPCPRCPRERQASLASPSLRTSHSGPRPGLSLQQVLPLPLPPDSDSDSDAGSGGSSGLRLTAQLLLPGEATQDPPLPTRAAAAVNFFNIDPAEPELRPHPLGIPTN

[7] = carriers (N = 12), 20 mg daily for 26 weeks
[8] = carriers, 5 mg daily for 26 weeks
[9] = carriers, 5 mg daily for 26 weeks (N = 5)
[10] = locus polymorphism carriers, 5, 20 and 50 mg daily for 26 weeks, N = 19
[11] = locus polymorphism non-carriers, 5, 20 and 50 mg daily for 26 weeks, N = 59
[12] = locus polymorphism non-carriers, 5, 20 and 50 mg daily for 26 weeks, compared to placebo
[13] = non-carriers (N = 23), 20 mg daily for 26 weeks
[14] = non-carriers, 5 mg daily for 26 weeks
[15] = non-carriers, 5 mg daily for 26 weeks (N = 19)
[16] = whole study population n=352, 5, 20 and 50 mg daily for 6 months

- IC50 (5HT1a [3]): 600 nM
- IC50 (5-HT-1b receptor): 8 µM
- IC50 (5-HT-1d receptor): 460 nM
- IC50 (5-HT-2a receptor): > 10 µM
- IC50 (5-HT-2c receptor): 2800 nM
- inhibition in the 60 receptor assays [4]: ≤ 50%
- IC50 (5-HT-7 receptor): > 10 µM
- agonist activity in the functional assay (5-HT1b): Low agonist activity
- agonist activity in the functional assay (5-HT1d): moderate agonist activity
- IC50 (5-HT-4 receptor): > 10 µM
- agonist activity in the functional assay (5HT1a [6]): moderate agonist activity
- IC50 (5-HT-6 receptor): > 10 µM
Structure (SMILES): COc1ccc2[nH]cc(CCNC(=O)c3cc(=O)cco3)c2c1 [piromelatine, N-(2-(5-methoxy-1H-indol-3-yl)ethyl)-4-oxo-4H-pyran-2-carboxamide]
- Improvement, ADAS-Cog14 [1]: deter
- Improvement, ADAS-Cog14 [2]: deter
- ADAS-Cog14 % Responders (decrease ≥ 4) [5, 7]: 8%
- ADAS-Cog14 Change from baseline [5, 7]: 3.58
- Improvement, NPI [5, 7]: yes
- Improvement, PSQI [5, 7]: ns
- Improvement, cNTB [5, 7]: yes
- NPI Change from baseline [5, 7]: −3.08
- PSQI Change from baseline [5, 7]: −0.17
- cNTB Change from baseline [5, 7]: 0.44
- ADAS Cogl4, Cohen's d vs placebo > 0.2 [5, 8]: improvement
- PSQI, Cohen's d vs placebo > 0.2 [5, 8]: no improvement
- cNTB, Cohen's d vs placebo > 0.2 [5, 8]: improvement
- ADAS Cogl4 Change from Baseline [5, 9]: −6.40
- PSQI Change from baseline [5, 9]: −3.40
- cNTB Change from baseline [5, 9]: 0.28
- cNTB attention domain composite score ([5]; carriers, 20 mg dose): improved
- cNTB episodic memory domain composite score ([5]; carriers, 20 mg dose): improved
- ADAS-Cog14 Change from baseline [5, 10]: 0.63*
- cNTB Change from baseline [5, 10]: 0.38*
- Improvement, cNTB ([5]; locus polymorphism carriers, 5, 20 and 50 mg daily for 26 weeks, compared to placebo): yes
- ADAS-Cog14 Change from baseline [5, 11]: −1.07*
- cNTB Change from baseline [5, 11]: −0.04
- Improvement, ADAS-Cog14 [5, 12]: yes
- Improvement, cNTB [5, 12]: ns
- ADAS-Cog14 % Responders (decrease ≥ 4) [5, 13]: 39%
- ADAS-Cog14 Change from baseline [5, 13]: −2.91
- Improvement, ADAS-Cog14 [5, 13]: yes
- Improvement, NPI [5, 13]: yes
- Improvement, PSQI [5, 13]: yes
- Improvement, cNTB [5, 13]: ns
- NPI Change from baseline [5, 13]: −2.70
- PSQI Change from baseline [5, 13]: −2.13
- cNTB Change from baseline [5, 13]: −0.06
- ADAS Cogl4, Cohen's d vs placebo > 0.20 [5, 14]: no improvement
- PSQI, Cohen's d vs placebo > 0.20 [5, 14]: improvement
- cNTB, Cohen's d vs placebo > 0.20 [5, 14]: deterioration
- ADAS Cogl4 Change from Baseline [5, 15]: 1.11
- PSQI Change from baseline [5, 15]: −1.11
- cNTB Change from baseline [5, 15]: −0.21
- ADAS-Cog14, drug vs placebo [5, 16]: no statistically significant differences
- global composite score of the cNTB, drug vs placebo [5, 16]: no statistically significant differences
